According to patent US8623429B2, “Stabilized anthocyanin compositions” (Omnica GmbH, priority 2007, dated 2014):

Key:
Format in all cases: physicochemical
[1] = Example 6: stability of free anthocyanidins delphinidin and malvidin at 37° C., pH 7.0, with/without GSH (HPLC); settings: pH 7.0, 37° C.
Description: (§1) Sample a) 5 mg delphinine chloride (0.015 mmol) was transferred into a 100 ml flask, dissolved in 1 ml methanol and filled to volume with sodium phosphate buffer (5% [w/w], pH=7.0). The sample was kept with stirring at 37° C. Samples were taken immediately after dissolution, after 15 minutes, 1, 2, and 3 hours of incubation. The samples were acidified with formic acid to pH=1.0 and analyzed by HPLC.
as §1, with “b)” for “a)”, “malvidin” for “delphinine”, “(0.014” for “(0.015”, “dissolution and at” for “dissolution, after 15 minutes,”
(§2) Sample c) 5 mg delphinidine chloride (0.015 mmol) and 10 mg GSH (0.032 mmol) were transferred into a 100 ml flask, dissolved in 1 ml methanol and filled to volume with sodium phosphate buffer (5% [w/w], pH=7.0). The sample was kept with stirring at 37° C. Samples were taken at 15 minutes after dissolution and after 1, 2 and 3 hours of incubation. The samples were acidified with formic acid to pH=1.0 and analyzed by HPLC.
as §2, with “d)” for “c)”, “malvidin” for “delphinidine”, “(0.014” for “(0.015”, “taken” for “taken at”
(§3) Samples were prepared as outlined below in HPLC Analytical Method. Test stability samples were immediately acidified (to block degradation) and injected undiluted following the detailed description provided below.

[2] = Example 9: stability of bilberry extract anthocyanosides, 4 hours at 37° C., pH 7.0, with/without L-cysteine
Description: Sample a) 60 mg bilberry extract [37% anthocyanosides] (0.048 mmol anthocyanosides expressed as cyanidin-3-O-glucoside) were added to a 100 ml flask with 60 ml sodium phosphate buffer (5% [w/w], pH=7.0), and stirred until dissolution was complete. A 1 ml sample was taken immediately and acidified with formic acid to pH=1.0 and analyzed by HPLC for the content of anthocyanosides (Fresh Sample). The remaining solution was kept for 4 hours at 37° C. (water bath) with stirring. Thereafter another sample (Blank sample), representing unprotected degradation, was taken and acidified.
Sample b) 20 mg L-cysteine […] were added to a 100 ml flask with 60 ml sodium phosphate buffer (5% [w/w], pH=7.0) and stirred until dissolution was complete. 60 mg bilberry extract [37% anthocyanosides] (0.048 mmol expressed as cyanidin-3-O-glucoside) were then added to the flask and stir to fully dissolve, then kept for 4 hours at 37° C. (water bath) with stirring.
After 4 hours, samples were taken and acidified immediately with formic acid to pH=1.0 and analyzed by HPLC for the content of anthocyanosides. Degradation is expressed as decrease in peak area of individual peaks (calculated as % left after 4 hours).
Samples were prepared as outlined above in the HPLC Analytical Method. Test stability samples were immediately acidified (to block degradation) and injected undiluted following the detailed description provided below.

[3] = Example 1: stability of bilberry extract anthocyanosides, 4 hours at 37° C., pH 7.0, with/without DHLA or GSH (HPLC)
Description: (0.048 mmol anthocyanosides expressed as cyanidin-3-O-glucoside) were added to a 100 ml flask and filled to volume with sodium phosphate buffer (5% [w/w], pH=7.0), and stirred until dissolution was complete. A 1 ml sample was taken immediately and acidified with formic acid to pH=1.0 and analyzed by HPLC for the content of anthocyanosides (Fresh Sample). The remaining solution was kept for 4 hours at 37° C. (water bath) with stirring. Thereafter another sample (Blank sample), representing unprotected degradation, was taken and acidified.
(0.048 mmol expressed as cyanidin-3-O-glucoside) were then added and the flask was filled to volume with sodium phosphate buffer (5% [w/w], pH=7.0) and kept for 4 hours at 37° C. (water bath) with stirring.
Quantitation: External standardization based on linear regression analysis. The response factors of all anthocyanosides separated is quantitified against cyanidin-3-O-glucoside.
Test solutions from incubation experiments (with/without cells and with/without stabilizing agents) were used for analysis after stabilization of anthocyanosides with formic acid. Samples were cleared by filtration prior to injection on to HPLC-system.

[4] = Example 2: degradation over time of selected bilberry anthocyanosides at 37° C., pH 7.0, with/without GSH (HPLC); settings: pH 7.0, 37° C.; for %-residual anthocyanosides (% left): 4.30 hours
Description: Sample a) 60 mg bilberry extract [37% anthocyanosides] (0.048 mmol expressed as cyanidin-3-O-glucoside) were added to a 100 ml, filled to volume with sodium phosphate buffer (5% [w/w], pH=7.0) and stirred until dissolution was complete. A 1 ml sample was immediately taken and acidified with formic acid to pH=1.0 and analyzed by HPLC for the content of anthocyanosides. The remaining solution was kept at 37° C. (water bath) with stirring and additional 1 ml samples (Blank Samples), representing unprotected degradation, were sampled every 15 minutes. The samples were analyzed for selected anthocyanosides by HPLC.
Sample b) 20 mg reduced L-glutathione (0.065 mmol) were added to a 100 ml flask with 60 ml sodium phosphate buffer (5% [w/w], pH=7.0) and stirred until dissolution was complete. 60 mg bilberry extract [37% anthocyanosides] (0.048 mmol expressed as cyanidin-3-O-glucoside) were added and the flask was filled to volume with sodium phosphate buffer (5% [w/w], pH=7.0) and kept at 37° C. (water bath) with stirring. Every 15 minutes, 1 ml samples were taken and analyzed for selected anthocyanosides by HPLC.
as §3
HPLC Analytical Method (Materials, Instruments and Methods): […]

[5] = unprotected, pH 7.0, 37° C., 4 hours
[6] = 20 mg reduced L-glutathione, pH 7.0, 37° C., 4 hours
[7] = 30 mg dihydrolipoic acid, pH 7.0, 37° C., 4 hours

Structure (SMILES): Oc1cc(O)c2cc(O)c(-c3cc(O)c(O)c(O)c3)[o+]c2c1 [Delphinidin]
- Peak Area ([1]; Blank, 0 hours): 48.6
- Peak Area ([1]; Blank, 0.25 hours): BLD
- Peak Area ([1]; Blank, 1 hour): BLD
- Peak Area ([1]; Blank, 2 hours): BLD
- Peak Area ([1]; Blank, 3 hours): BLD
- Peak Area ([1]; GSH 10 mg, 0.25 hours): BLD
- Peak Area ([1]; GSH 10 mg, 1 hour): BLD
- Peak Area ([1]; GSH 10 mg, 2 hours): BLD
- Peak Area ([1]; GSH 10 mg, 3 hours): BLD

Structure (SMILES): OC[C@H]1O[C@@H](Oc2cc3c(O)cc(O)cc3[o+]c2-c2cc(O)c(O)c(O)c2)[C@H](O)[C@@H](O)[C@H]1O [Dp-3O-Gal, Delphinidin 3-o-galactoside]
- Peak Area, Fresh solution ([2]; bilberry extract 60 mg in buffer pH 7.0, fresh sample): 654.4
- % left, L-cysteine 20 mg ([2]; pH 7.0, 37° C., 4 hours): 50.6%
- Peak Area, L-cysteine 20 mg ([2]; pH 7.0, 37° C., 4 hours): 331.3
- % left, Blank [2, 5]: 7.8%
- Peak Area, Blank [2, 5]: 50.9
- % left, GSH (4 hours) [3, 6]: 50.6%
- Peak Area, GSH (4 hours) [3, 6]: 331.3
- % left, DHLA (4 hours) [3, 7]: 60.5%
- Peak Area, DHLA (4 hours) [3, 7]: 395.8
- Peak Area, Fresh (0 hours) ([3]; bilberry extract 60 mg/100 ml sodium phosphate buffer pH 7.0, fresh sample): 654.4
- % left, Blank (4 hours) [3, 5]: 7.8%
- Peak Area, Blank (4 hours) [3, 5]: 50.9
- Peak Area ([4]; Blank Sample, 1:15 h): 354.36
- Peak Area ([4]; Blank Sample, 4:15 h): 226.99
- Peak Area ([4]; Blank Sample, 4:30 h): 135.48
- Peak Area ([4]; Blank sample, 0:00 h): 699.51
- Peak Area ([4]; Blank sample, 0:15 h): 547.09
- Peak Area ([4]; Blank sample, 0:30 h): 603.54
- Peak Area ([4]; Blank sample, 0:45 h): 451.09
- Peak Area ([4]; Blank sample, 1:00 h): 467.23
- Peak Area ([4]; Blank sample, 1:45 h): 401.11
- Peak Area ([4]; Blank sample, 2:00 h): 356.25
- Peak Area ([4]; Blank sample, 2:15 h): 320.33
- Peak Area ([4]; Blank sample, 2:30 h): 262.70
- Peak Area ([4]; Blank sample, 2:45 h): 264.07
- Peak Area ([4]; Blank sample, 3:00 h): 288.65
- Peak Area ([4]; Blank sample, 3:15 h): 289.95
- Peak Area ([4]; Blank sample, 3:30 h): 237.41
- Peak Area ([4]; Blank sample, 4:00 h): 243.90
- %-residual anthocyanosides (% left) ([4]; Blank): 19%
- Peak Area ([4]; GSH Protected Sample (20 mg), 0:30 h): 674.83
- Peak Area ([4]; GSH Protected Sample (20 mg), 1:30 h): 618.45
- Peak Area ([4]; GSH Protected Sample (20 mg), 2:30 h): 528.71
- Peak Area ([4]; GSH Protected Sample (20 mg), 3:30 h): 553.82
- Peak Area ([4]; GSH Protected Sample (20 mg), 4:30 h): 531.62
- Peak Area ([4]; GSH Protected Sample (20 mg), 4:45 h): 478.52
- Peak Area ([4]; GSH protected sample (20 mg), 0:00 h): 731.12
- Peak Area ([4]; GSH protected sample (20 mg), 0:15 h): 739.50
- Peak Area ([4]; GSH protected sample (20 mg), 0:45 h): 598.57
- Peak Area ([4]; GSH protected sample (20 mg), 1:00 h): 652.53
- Peak Area ([4]; GSH protected sample (20 mg), 1:15 h): 648.70
- Peak Area ([4]; GSH protected sample (20 mg), 1:45 h): 609.47
- Peak Area ([4]; GSH protected sample (20 mg), 2:00 h): 583.66
- Peak Area ([4]; GSH protected sample (20 mg), 2:15 h): 592.13
- Peak Area ([4]; GSH protected sample (20 mg), 2:45 h): 560.24
- Peak Area ([4]; GSH protected sample (20 mg), 3:00 h): 562.10
- Peak Area ([4]; GSH protected sample (20 mg), 3:15 h): 562.39
- Peak Area ([4]; GSH protected sample (20 mg), 3:45 h): 495.67
- Peak Area ([4]; GSH protected sample (20 mg), 4:00 h): 563.95
- Peak Area ([4]; GSH protected sample (20 mg), 4:15 h): 540.10
- %-residual anthocyanosides (% left) ([4]; GSH-protected): 65%
- %-residual anthocyanosides (% left) ([4]; GSH-protected, listed as delphinidin-3-O-Galactose): 65%

Structure (SMILES): COc1cc(-c2[o+]c3cc(O)cc(O)c3cc2O)cc(OC)c1O.[Cl-] [Malvidin]
- Peak Area ([1]; Blank, 0 hours): 1228
- Peak Area ([1]; Blank, 1 hour): 661.6
- Peak Area ([1]; Blank, 2 hours): 175.3
- Peak Area ([1]; Blank, 3 hours): 56.4
- Peak Area ([1]; GSH 10 mg, 1 hour): 530.1
- Peak Area ([1]; GSH 10 mg, 2 hours): 263.5
- Peak Area ([1]; GSH 10 mg, 3 hours): 5.6
